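In this assay, cells in 96-well plates receive the compound at five concentrations for 48 hours. Endpoints are linearly interpolated between the surrounding concentrations. TGI: concentration producing complete growth inhibition.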
Assays:
Experiment in all cases: NCI tumour cell line growth inhibition, 48 h
A498 renal = system: A498 renal
A549 NSCLC = system: A549 NSCLC
CAKI-1 renal = system: CAKI-1 renal
CCRF-CEM leukemia = system: CCRF-CEM leukemia
COLO 205 colon = system: COLO 205 colon
DLD-1 colon = system: DLD-1 colon
DMS 114 small cell lung = system: DMS 114 small cell lung
DMS 273 small cell lung = system: DMS 273 small cell lung
EKVX NSCLC = system: EKVX NSCLC
HCC-2998 colon = system: HCC-2998 colon
HCT-116 colon = system: HCT-116 colon
HCT-15 colon = system: HCT-15 colon
HL-60(TB) leukemia = system: HL-60(TB) leukemia
HOP-18 NSCLC = system: HOP-18 NSCLC
HOP-62 NSCLC = system: HOP-62 NSCLC
HOP-92 NSCLC = system: HOP-92 NSCLC
HT29 colon = system: HT29 colon
IGROV1 ovarian = system: IGROV1 ovarian
K-562 leukemia = system: K-562 leukemia
KM12 colon = system: KM12 colon
KM20L2 colon = system: KM20L2 colon
LOX IMVI melanoma = system: LOX IMVI melanoma
M19-MEL melanoma = system: M19-MEL melanoma
MCF7 breast = system: MCF7 breast
MOLT-4 leukemia = system: MOLT-4 leukemia
NCI-H226 lung = system: NCI-H226 lung
NCI-H23 lung = system: NCI-H23 lung
NCI-H460 lung = system: NCI-H460 lung
NCI-H522 lung = system: NCI-H522 lung
NCI/ADR-RES ovarian = system: NCI/ADR-RES ovarian
OVCAR-3 ovarian = system: OVCAR-3 ovarian
OVCAR-4 ovarian = system: OVCAR-4 ovarian
OVCAR-5 ovarian = system: OVCAR-5 ovarian
OVCAR-8 ovarian = system: OVCAR-8 ovarian
P388 leukemia = system: P388 leukemia
P388/ADR leukemia = system: P388/ADR leukemia
RPMI-8226 leukemia = system: RPMI-8226 leukemia
RXF 393 renal = system: RXF 393 renal
SF-268 CNS = system: SF-268 CNS
SF-295 CNS = system: SF-295 CNS
SF-539 CNS = system: SF-539 CNS
SK-MEL-2 melanoma = system: SK-MEL-2 melanoma
SK-MEL-28 melanoma = system: SK-MEL-28 melanoma
SK-MEL-5 melanoma = system: SK-MEL-5 melanoma
SK-OV-3 ovarian = system: SK-OV-3 ovarian
SN12C renal = system: SN12C renal
SN12K1 renal = system: SN12K1 renal
SNB-19 CNS = system: SNB-19 CNS
SNB-75 CNS = system: SNB-75 CNS
SNB-78 CNS = system: SNB-78 CNS
SW-620 colon = system: SW-620 colon
U251 CNS = system: U251 CNS
UACC-257 melanoma = system: UACC-257 melanoma
UACC-62 melanoma = system: UACC-62 melanoma
UO-31 renal = system: UO-31 renal
XF 498 CNS = system: XF 498 CNS

COc1ccc(-c2nc3ccc([N+](=O)[O-])cc3c(=O)[nH]2)cc1
TGI (A498 renal): > 100 µM | TGI (A549 NSCLC): > 100 µM | TGI (CAKI-1 renal): > 86.7 µM | TGI (CCRF-CEM leukemia): > 100 µM | TGI (COLO 205 colon): > 100 µM | TGI (DLD-1 colon): > 100 µM | TGI (DMS 114 small cell lung): > 100 µM | TGI (DMS 273 small cell lung): > 100 µM | TGI (EKVX NSCLC): > 100 µM | TGI (HCC-2998 colon): > 100 µM | TGI (HCT-116 colon): > 79.4 µM | TGI (HCT-15 colon): > 100 µM | TGI (HL-60(TB) leukemia): > 100 µM | TGI (HOP-18 NSCLC): > 100 µM | TGI (HOP-62 NSCLC): > 67.7 µM | TGI (HOP-92 NSCLC): 45.8 µM | TGI (HT29 colon): > 100 µM | TGI (IGROV1 ovarian): 71.5 µM | TGI (K-562 leukemia): > 100 µM | TGI (KM12 colon): > 100 µM | TGI (KM20L2 colon): > 100 µM | TGI (LOX IMVI melanoma): > 100 µM | TGI (M19-MEL melanoma): > 100 µM | TGI (MCF7 breast): > 100 µM | TGI (MOLT-4 leukemia): > 100 µM | TGI (NCI-H226 lung): 59.1 µM | TGI (NCI-H23 lung): > 86.8 µM | TGI (NCI-H460 lung): > 100 µM | TGI (NCI-H522 lung): 90.5 µM | TGI (NCI/ADR-RES ovarian): > 100 µM | TGI (OVCAR-3 ovarian): 64.3 µM | TGI (OVCAR-4 ovarian): 33.4 µM | TGI (OVCAR-5 ovarian): > 100 µM | TGI (OVCAR-8 ovarian): > 72.2 µM | TGI (P388 leukemia): > 100 µM | TGI (P388/ADR leukemia): > 100 µM | TGI (RPMI-8226 leukemia): > 100 µM | TGI (RXF 393 renal): > 75.6 µM | TGI (SF-268 CNS): 67.3 µM | TGI (SF-295 CNS): > 63.3 µM | TGI (SF-539 CNS): 29.7 µM | TGI (SK-MEL-2 melanoma): > 100 µM | TGI (SK-MEL-28 melanoma): > 100 µM | TGI (SK-MEL-5 melanoma): > 100 µM | TGI (SK-OV-3 ovarian): 29.3 µM | TGI (SN12C renal): > 100 µM | TGI (SN12K1 renal): > 86.5 µM | TGI (SNB-19 CNS): 55.3 µM | TGI (SNB-75 CNS): 31 µM | TGI (SNB-78 CNS): 71.8 µM | TGI (SW-620 colon): > 100 µM | TGI (U251 CNS): > 64.3 µM | TGI (UACC-257 melanoma): > 100 µM | TGI (UACC-62 melanoma): > 100 µM | TGI (UO-31 renal): > 100 µM | TGI (XF 498 CNS): 46.3 µM

— PubChem BioAssay (NCI)
